What is called inhibition is the relative decrease from the control value, in per cent.

Counter-ions that a name gives are not always drawn.

For the first test, the target named is T1, A/M2 protein (IonGate S31) (Influenza A virus, UniProt P0DOF5).
T1 construct: expressed in transfected cells; host or cells: CHO cell membranes
T1 sequence (P0DOF5 whole entry): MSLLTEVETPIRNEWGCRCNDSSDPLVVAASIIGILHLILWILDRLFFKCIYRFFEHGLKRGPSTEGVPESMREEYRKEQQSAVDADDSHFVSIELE
The experiment in a line: Cell-free electrophysiology of M2 proton channels on solid supported membranes (SSM, IonGate SURFE2R). The class given is biochemical. Particulars: 25 μM compound, activation by pH jump 7.0 to 6.0, % inhibition=100×(1−I/Io), hydrochloride, 25 µM.
Take `NC12CC3CC(CC(C(F)F)C(C3)C1)C2` (stereo not drawn) [Example 10, exo-4-(difluoromethyl)tricyclo[4.3.1.1^3,8]undecan-1-amine hydrochloride]: the “IonGate S31 (% Inhibition Range at 25 μM)” value is listed as “B (11-50% (B))”. On the same count and under the same terms, as for `NC12CC3CC(CC(C(F)F)C(C3)C1)C2` (stereo not drawn) [Example 11, endo-4-(difluoromethyl)tricyclo[4.3.1.1^3,8]undecan-1-amine hydrochloride], the entry is “A (51-95% (A))”.

The test is the same for the next values; noted with them: 25 μM compound, activation by pH jump 7.0 to 6.0, % inhibition=100×(1−I/Io), read-out: IonGate S31 (% Inhibition Range at 25 μM).
For the compound `NC12CC3COC(CC(C3)C1)C2` (centres unmarked) [Example 16, 4-oxatricyclo[4.3.1.1^3,8]undecan-1-amine hydrochloride], the inhibition at 25 µM lay within 11 to 50%.

For the compound `NC12CC3CC(CC(C1)C(I)C3)C2` (centres unmarked) [Example 5, 4-iodotricyclo[4.3.1.1^3,8]undecan-1-amine hydrochloride], the inhibition at 25 µM is 11 to 50%. The same measure, in the same setting: to `NC12CC3CNC(CC(C3)C1)C2` (centres unmarked) [Example 15, 4-azatricyclo[4.3.1.1^3,8]undecan-1-amine dihydrochloride] belongs 11 to 50%; to `NC12CC3CC(=NO)C(CC(C3)C1)C2` (centres unmarked) [Example 12, 1-aminotricyclo[4.3.1.1^3,8]undecan-4-one oxime hydrochloride], 1 to 10%. The same measure, in the same setting: to `NC12CC3CC(C1)OC(=O)C(C3)C2` (centres unmarked) [Example 13, 1-amino-4-oxatricyclo[4.3.1.1^3,8]undecan-5-one hydrochloride] belongs 1 to 10%; to `N#CC1CC2CC3CC1CC(N)(C2)C3` (stereo not drawn) [Example 8, exo-1-aminotricyclo[4.3.1.1^3,8]undecane-4-carbonitrile hydrochloride], 51 to 95%. On to `NC12CC3CC(CC(C1)C(F)C3)C2` (stereo not drawn) [Example 3, endo-4-fluorotricyclo[4.3.1.1^3,8]undecan-1-amine hydrochloride], for which the inhibition at 25 µM lay within 51 to 95%. On the same count and under the same terms, as for `NC12CC3CC(C1)NC(=O)C(C3)C2` (centres unmarked) [Example 14, 1-amino-4-azatricyclo[4.3.1.1^3,8]undecan-5-one hydrochloride], the figure is 1 to 10%; as for `NC12CC3CC(CC(C1)C(O)C3)C2` (stereo not drawn) [Example 1, exo-1-aminotricyclo[4.3.1.1^3,8]undecan-4-ol hydrochloride], 11 to 50%.
